From patent publication US9708316B2 (BRISTOL-MYERS SQUIBB COMPANY, priority 2014, dated 2017)

Legend:
HIS-TGFβR1 T204D = biological target: T1, HIS-TGFβR1 T204D (Homo sapiens, UniProt P36897, T204D); experiment: HTRF probe-displacement assay, HIS-TGFβR1 T204D; assay type: binding; conditions: read-out: TGFβR1 (μM) IC50
T1 sequence (P36897 34-503 T204D): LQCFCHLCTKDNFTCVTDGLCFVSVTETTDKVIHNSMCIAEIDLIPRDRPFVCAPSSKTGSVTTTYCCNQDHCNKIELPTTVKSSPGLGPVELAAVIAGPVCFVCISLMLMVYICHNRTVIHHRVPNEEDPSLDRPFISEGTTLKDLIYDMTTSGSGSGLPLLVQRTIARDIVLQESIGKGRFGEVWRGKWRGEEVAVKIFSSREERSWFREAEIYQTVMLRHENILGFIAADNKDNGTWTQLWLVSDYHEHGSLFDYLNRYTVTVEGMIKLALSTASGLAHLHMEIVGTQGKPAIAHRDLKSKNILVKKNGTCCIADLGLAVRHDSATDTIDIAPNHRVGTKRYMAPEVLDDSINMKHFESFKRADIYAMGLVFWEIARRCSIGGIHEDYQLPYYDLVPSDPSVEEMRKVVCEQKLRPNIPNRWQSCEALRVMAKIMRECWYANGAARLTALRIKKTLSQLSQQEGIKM

HIS-TGFβR2 WT = HIS-TGFβR2 WT (Homo sapiens, UniProt P37173); experiment: HTRF probe-displacement assay, HIS-TGFβR2 WT; assay type: binding
Chain of HIS-TGFβR2 WT (P37173 23-567): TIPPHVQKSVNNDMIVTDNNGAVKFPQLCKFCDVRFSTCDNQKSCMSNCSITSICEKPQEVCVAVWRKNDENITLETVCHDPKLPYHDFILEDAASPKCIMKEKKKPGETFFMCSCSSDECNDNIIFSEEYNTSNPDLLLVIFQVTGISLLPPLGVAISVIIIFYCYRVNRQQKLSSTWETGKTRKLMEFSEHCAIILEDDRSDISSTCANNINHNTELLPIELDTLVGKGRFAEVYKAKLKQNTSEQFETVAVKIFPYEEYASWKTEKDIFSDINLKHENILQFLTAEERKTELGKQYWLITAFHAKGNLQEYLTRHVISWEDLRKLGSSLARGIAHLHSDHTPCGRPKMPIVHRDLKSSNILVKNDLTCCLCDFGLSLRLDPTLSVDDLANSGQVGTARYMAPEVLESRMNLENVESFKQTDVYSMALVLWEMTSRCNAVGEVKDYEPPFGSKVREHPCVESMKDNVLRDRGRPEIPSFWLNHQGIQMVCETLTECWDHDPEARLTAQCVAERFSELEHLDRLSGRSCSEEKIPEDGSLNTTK

Row | SMILES | IC50 (HIS-TGFβR1 T204D) [µM] | IC50 (HIS-TGFβR2 WT) [µM]
1 | CCc1ccnc(-c2c(-c3ccnc(NC(C)=O)c3)[nH]c3cccnc23)c1 [Example 29, N-{4-[3-(4-Ethylpyridin-2-yl)-1H-pyrrolo[3,2-b]pyridin-2-yl]pyridin-2-yl}acetamide] | 0.017 | > 15
2 | COc1ccc(-c2c(-c3ccnc(NC(C)=O)c3)n(C)c3cccnc23)cn1 [Example 54, N-{4-[3-(6-Methoxypyridin-3-yl)-1-methyl-1H-pyrrolo[3,2-b]pyridin-2-yl]pyridin-2-yl}acetamide] | 0.021 | 3.61
3 | CC(=O)Nc1cc(-c2[nH]c3cc(F)cnc3c2-c2ncc(C)s2)ccn1 [Example 183, N-(4-(6-Fluoro-3-(5-methylthiazol-2-yl)-1H-pyrrolo[3,2-b]pyridin-2-yl)pyridin-2-yl)acetamide] | 0.003 | 0.407
4 | CC(=O)Nc1cc(-c2[nH]c3cccnc3c2-c2csc(C)n2)ccn1 [Example 211, N-(4-(3-(2-Methylthiazol-4-yl)-1H-pyrrolo[3,2-b]pyridin-2-yl)pyridin-2-yl)acetamide] | 0.0049 | 1.04
5 | CCC(OC(N)=O)c1ccnc2c(-c3ccc(OC)nc3)c(-c3ccnc(NC(C)=O)c3)[nH]c12 (centres unmarked) [Example 302, 1-(2-(2-Acetamidopyridin-4-yl)-3-(6-methoxypyridin-3-yl)-1H-pyrrolo[3,2-b]pyridin-7-yl)propyl carbamate] | 0.001 | 0.723
6 | CC(=O)Nc1cc(-c2[nH]c3c(C(C)O)ccnc3c2-c2cccc(Cl)n2)ccn1 (centres unmarked) [Example 263, N-(4-(3-(6-Chloropyridin-2-yl)-7-(1-hydroxyethyl)-1H-pyrrolo[3,2-b]pyridin-2-yl)pyridin-2-yl)acetamide] | 0.001 | 0.279
7 | COc1ccc(-c2c(-c3ccnc(NC(C)=O)c3)[nH]c3ccc(F)nc23)nc1 [Example 37, N-{4-[5-Fluoro-3-(5-methoxypyridin-2-yl)-1H-pyrrolo[3,2-b]pyridin-2-yl]pyridin-2-yl}acetamide] | 0.002 | > 15
8 | COc1nc(-c2c(-c3ccnc(NC(C)=O)c3)[nH]c3cccnc23)cs1 [Example 201, N-(4-(3-(2-Methoxythiazol-4-yl)-1H-pyrrolo[3,2-b]pyridin-2-yl)pyridin-2-yl)acetamide] | 0.0275 | 1.53
9 | COc1ccc(-c2c(-c3ccnc(NC(=O)CN4CCN(C)CC4)c3)[nH]c3cc(OC)cnc23)nc1 [Example 119, N-{4-[6-Methoxy-3-(5-methoxypyridin-2-yl)-1H-pyrrolo[3,2-b]pyridin-2-yl]pyridin-2-yl}-2-(4-methylpiperazin-1-yl)acetamide] | < 0.001 | > 15
10 | COc1ccc(-c2c(-c3ccnc(NC(C)=O)c3)[nH]c3cccnc23)nc1Cl [Example 192, N-(4-(3-(6-Chloro-5-methoxypyridin-2-yl)-1H-pyrrolo[3,2-b]pyridin-2-yl)pyridin-2-yl)acetamide] | 0.11 | > 15
11 | COc1ccc(-c2c(-c3ccnc(NC(C)=O)c3)[nH]c3c(C)ccnc23)cn1 [Example 215, N-(4-(3-(6-Methoxypyridin-3-yl)-7-methyl-1H-pyrrolo[3,2-b]pyridin-2-yl)pyridin-2-yl)acetamide] | 0.0885 | 0.999
12 | CC(=O)Nc1cc(-c2[nH]c3cccnc3c2-c2nc(C#N)cs2)ccn1 [Example 203, N-(4-(3-(4-Cyanothiazol-2-yl)-1H-pyrrolo[3,2-b]pyridin-2-yl)pyridin-2-yl)acetamide] | 0.774 | > 15
13 | CC(=O)Nc1cc(-c2[nH]c3cccnc3c2-c2cccc(OC(F)F)n2)ccn1 [Example 174, N-(4-(3-(6-(Difluoromethoxy)pyridin-2-yl)-1H-pyrrolo[3,2-b]pyridin-2-yl)pyridin-2-yl)acetamide] | 0.0034 | > 15
14 | CC(=O)Nc1cc(-c2[nH]c3c(Cl)ccnc3c2-c2ccc(Cl)cn2)ccn1 [Example 63, N-{4-[7-Chloro-3-(5-chloropyridin-2-yl)-1H-pyrrolo[3,2-b]pyridin-2-yl]pyridin-2-yl}acetamide] | 0.019 | > 15
15 | COc1ccc(-c2c(-c3ccnc(NC(C)=O)c3)[nH]c3cc(CN)cnc23)cn1 [Example 79, N-(4-(6-(Aminomethyl)-3-(6-methoxypyridin-3-yl)-1H-pyrrolo[3,2-b]pyridin-2-yl)pyridin-2-yl)acetamide] | 0.007 | 0.16
16 | COc1ccc(-c2c(-c3ccnc(NC(C)=O)c3)[nH]c3cc(Cl)cnc23)cn1 [Example 43, N-{4-[6-Chloro-3-(6-methoxypyridin-3-yl)-1H-pyrrolo[3,2-b]pyridin-2-yl]pyridin-2-yl}acetamide] | 0.002 | 0.068

Row | SMILES | IC50 (HIS-TGFβR1 T204D) [µM] | IC50 (HIS-TGFβR2 WT) [µM]
17 | CC(=O)Nc1cc(-c2[nH]c3cc(Cl)cnc3c2-c2cccc(C(C)C)n2)ccn1 [Example 260, N-(4-(6-Chloro-3-(6-isopropylpyridin-2-yl)-1H-pyrrolo[3,2-b]pyridin-2-yl)pyridin-2-yl)acetamide] | 0.049 | > 15
18 | CC(=O)Nc1cc(-c2[nH]c3cccnc3c2-c2ccc(F)c(C(F)F)n2)ccn1 [Example 193, N-(4-(3-(6-(Difluoromethyl)-5-fluoropyridin-2-yl)-1H-pyrrolo[3,2-b]pyridin-2-yl)pyridin-2-yl)acetamide] | 0.0006 | > 15
19 | CC(=O)Nc1cc(-c2[nH]c3cccnc3c2-c2ccc(Cl)nc2)ccn1 [Example 9, N-{4-[3-(6-Chloropyridin-3-yl)-1H-pyrrolo[3,2-b]pyridin-2-yl]pyridin-2-yl}acetamide] | 0.023 | 0.33
20 | CC(=O)Nc1cc(-c2[nH]c3cccnc3c2-c2ccc(C(F)F)cn2)ccn1 [Example 108, N-(4-(3-(5-(Difluoromethyl)pyridin-2-yl)-1H-pyrrolo[3,2-b]pyridin-2-yl)pyridin-2-yl)acetamide] | 0.145 | > 15
21 | CC(=O)Nc1cc(-c2[nH]c3cccnc3c2-c2nccc(C)n2)ccn1 [Example 195, N-(4-(3-(4-Methylpyrimidin-2-yl)-1H-pyrrolo[3,2-b]pyridin-2-yl)pyridin-2-yl)acetamide] | 0.0048 | > 15
22 | O=C(CNCCN1CCOCC1)Nc1cc(-c2[nH]c3cc(Cl)cnc3c2-c2ccc(F)cn2)ccn1 [Example 241, N-{4-[6-Chloro-3-(5-fluoropyridin-2-yl)-1H-pyrrolo[3,2-b]pyridin-2-yl]pyridin-2-yl}-2-{[2-(morpholin-4-yl)ethyl]amino}acetamide] | 0.004 | 3.67
23 | COc1ccc(-c2c(-c3ccnc(NC(C)=O)c3)[nH]c3c(C#N)ccnc23)cn1 [Example 80, N-(4-(7-Cyano-3-(6-methoxypyridin-3-yl)-1H-pyrrolo[3,2-b]pyridin-2-yl)pyridin-2-yl)acetamide] | 0.007 | 0.083
24 | COc1ccc(-c2c(-c3ccnc(NC(C)=O)c3)[nH]c3cccnc23)nn1 [Example 198, N-(4-(3-(6-Methoxypyridazin-3-yl)-1H-pyrrolo[3,2-b]pyridin-2-yl)pyridin-2-yl)acetamide] | 0.0011 | 1.48
25 | CC(=O)Nc1cc(-c2[nH]c3cccnc3c2-c2cc(C)c(F)cn2)ccn1 [Example 24, N-{4-[3-(5-Fluoro-4-methylpyridin-2-yl)-1H-pyrrolo[3,2-b]pyridin-2-yl]pyridin-2-yl}acetamide] | 0.018 | 0.21
26 | COc1cnc2c(-c3cccc(Cl)n3)c(-c3ccnc(NC(C)=O)c3)[nH]c2c1 [Example 48, N-{4-[3-(6-Chloropyridin-2-yl)-6-methoxy-1H-pyrrolo[3,2-b]pyridin-2-yl]pyridin-2-yl}acetamide] | 0.001 | 0.076
27 | COc1ccc(-c2c(-c3ccnc(NC(C)=O)c3)[nH]c3c(C(C)O)ccnc23)cn1 (centres unmarked) [Example 230, N-(4-(7-(1-Hydroxyethyl)-3-(6-methoxypyridin-3-yl)-1H-pyrrolo[3,2-b]pyridin-2-yl)pyridin-2-yl)acetamide] | 0.0024 | 0.037
28 | COc1cnc2c(-c3ccc(OC(F)F)cn3)c(-c3ccnc(NC(C)=O)c3)[nH]c2c1 [Example 113, N-(4-(3-(5-(Difluoromethoxy)pyridin-2-yl)-6-methoxy-1H-pyrrolo[3,2-b]pyridin-2-yl)pyridin-2-yl)acetamide] | 0.003 | 14.6
29 | CC(=O)Nc1cc(-c2[nH]c3cc(Cl)cnc3c2-c2nc(C(F)F)cs2)ccn1 [Example 172, N-(4-(6-Chloro-3-(4-(difluoromethyl)thiazol-2-yl)-1H-pyrrolo[3,2-b]pyridin-2-yl)pyridin-2-yl)acetamide] | 0.0004 | 3.98
30 | COc1cnc2c(-c3cccc(C)n3)c(-c3ccnc(NC(=O)CN4CCN(CCO)CC4)c3)[nH]c2c1 [Example 122, 2-[4-(2-Hydroxyethyl)piperazin-1-yl]-N-{4-[6-methoxy-3-(6-methy 1pyridin-2-yl)-1H-pyrrolo[3,2-b]pyridin-2-yl]pyridin-2-yl}acetamide] | 0.001 | > 15
31 | CC(=O)Nc1cc(-c2[nH]c3c(CN4CCOCC4)ccnc3c2-c2cccc(C(F)F)n2)ccn1 [Example 140, N-(4-{3-[6-(Difluoromethyl)pyridin-2-yl]-7-(morpholin-4-ylmethyl)-1H-pyrrolo[3,2-b]pyridin-2-yl}pyridin-2-yl)acetamide] | 0.001 | 7.6
